The record followed here is US8846698B2, “Pyrrolo[2,3-d]pyrimidine tropomysin-related kinase inhibitors” (Pfizer Limited, priority 2011, dated 2014).

This test addresses TRKA (Homo sapiens (Human), UniProt P04629). In words: Isolated TRK enzyme assay (HTRF KinEASE-TK), TRKA. Type of test: biochemical. The following applies: read-out: Trka enzyme (IC50). On the technique in general: Time-resolved FRET reads energy transfer from a long-lived donor to a nearby acceptor.

Chain of TRKA (P04629 441-796): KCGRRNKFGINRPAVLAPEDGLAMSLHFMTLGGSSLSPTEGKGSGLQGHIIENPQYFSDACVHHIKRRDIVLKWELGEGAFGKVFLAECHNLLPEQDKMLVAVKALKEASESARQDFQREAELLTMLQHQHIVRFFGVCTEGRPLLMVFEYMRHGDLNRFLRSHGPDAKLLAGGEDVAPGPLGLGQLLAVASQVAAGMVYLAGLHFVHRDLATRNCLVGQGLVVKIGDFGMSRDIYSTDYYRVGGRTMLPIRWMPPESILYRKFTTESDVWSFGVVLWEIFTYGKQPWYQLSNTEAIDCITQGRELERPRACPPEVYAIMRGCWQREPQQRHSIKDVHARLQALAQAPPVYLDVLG

One may read the IC50 as the concentration that gives 50% inhibition. As for `CC(C)n1cc(C(=O)c2cncc(NC(=O)c3ccc4cnnc-4[nH]3)c2)c2cncnc21` [Example 506, Pyrazolo[3,4-b]pyridine-6-carboxylic acid [5-(7-isopropyl-7H-pyrrolo[2,3-d]pyrimidine-5-carbonyl)-pyridin-3-yl]-amide], the IC50 turned out to be 67 nM.

For `CC(C)n1cc(C(=O)c2cncc(NC(=O)c3[nH]nc4ccccc34)c2)c2cncnc21` [Example 507, 2H-Indazole-3-carboxylic acid [5-(7-isopropyl-7H-pyrrolo[2,3-d]pyrimidine-5-carbonyl)-pyridin-3-yl]-amide], the IC50 is 5.45 nM.

With `Cc1noc2ncc(C(=O)Nc3cncc(C(=O)c4cn(C(C)C)c5ncncc45)c3)cc12` [Example 508, 3-Methyl-isoxazolo[5,4-b]pyridine-5-carboxylic acid [5-(7-isopropyl-7H-pyrrolo[2,3-d]pyrimidine-5-carbonyl)-pyridin-3-yl]-amide], the IC50 came out at 1630 nM.

As to `CC(C)n1cc(C(=O)c2cncc(NC(=O)c3ccnnc3)c2)c2cncnc21` [Example 509, Pyridazine-4-carboxylic acid [5-(7-isopropyl-7H-pyrrolo[2,3-d]pyrimidine-5-carbonyl)-pyridin-3-yl]-amide], the IC50 worked out at 9800 nM.

As to `CC(C)n1cc(C(=O)c2cncc(NC(=O)c3cc4c(cn3)OCCO4)c2)c2cncnc21` [Example 510, 2,3-Dihydro-1,4-dioxino[2,3-c]pyridine-7-carboxylic acid [5-(7-isopropyl-7H-pyrrolo[2,3-d]pyrimidine-5-carbonyl)-pyridin-3-yl]-amide], the IC50 came to 249 nM.

`CC(C)n1cc(C(=O)c2cncc(NC(=O)c3n[nH]c4ncccc34)c2)c2cncnc21` [Example 511, 1H-Pyrazolo[3,4-b]pyridine-3-carboxylic acid [5-(7-isopropyl-7H-pyrrolo[2,3-d]pyrimidine-5-carbonyl)-pyridin-3-yl]-amide]: the IC50 came to 144 nM.

In the case of `CC(C)n1cc(C(=O)c2cncc(NC(=O)c3n[nH]c4ccc(F)cc34)c2)c2cncnc21` [Example 512, 5-Fluoro-1H-indazole-3-carboxylic acid [5-(7-isopropyl-7H-pyrrolo[2,3-d]pyrimidine-5-carbonyl)-pyridin-3-yl]-amide], the IC50 is 12.6 nM.

On to `Cc1cc(C(=O)Nc2cncc(C(=O)c3cn(C(C)C)c4ncncc34)c2)n(C)n1` [Example 513, 2,5-Dimethyl-2H-pyrazole-3-carboxylic acid [5-(7-isopropyl-7H-pyrrolo[2,3-d]pyrimidine-5-carbonyl)-pyridin-3-yl]-amide], for which the IC50 was found to be 1890 nM.

For the compound `CC(C)n1cc(C(=O)c2cncc(NC(=O)c3ccnc4ncsc34)c2)c2cncnc21` [Example 514, Thiazolo[4,5-b]pyridine-7-carboxylic acid [5-(7-isopropyl-7H-pyrrolo[2,3-d]pyrimidine-5-carbonyl)-pyridin-3-yl]-amide], the IC50 was found to be 9800 nM.

Take `CC(C)n1cc(C(=O)c2cncc(NC(=O)c3cn4nc(Cl)ccc4n3)c2)c2cncnc21` [Example 515, 6-Chloro-imidazo[1,2-b]pyridazine-2-carboxylic acid [5-(7-isopropyl-7H-pyrrolo[2,3-d]pyrimidine-5-carbonyl)-pyridin-3-yl]-amide]: the IC50 worked out at 1140 nM.

With `CC(C)n1cc(C(=O)c2cncc(NC(=O)CN3CCc4cccnc4C3)c2)c2cncnc21` [Example 517, 2-(5,8-Dihydro-6H-[1,7]naphthyridin-7-yl)-N-[5-(7-isopropyl-7H-pyrrolo[2,3-d]pyrimidine-5-carbonyl)-pyridin-3-yl]-acetamide], the IC50 was 4390 nM.

Take `CC(C)n1cc(C(=O)c2cncc(NC(=O)C(O)c3ccccc3)c2)c2cncnc21` (stereo not drawn) [Example 518, 2-Hydroxy-N-[5-(7-isopropyl-7H-pyrrolo[2,3-d]pyrimidine-5-carbonyl)-pyridin-3-yl]-2-phenyl-acetamide]: the IC50 is 7.3 nM.

Regarding `CCOc1ncc(C(=O)c2cn(C(C)C)c3ncncc23)cc1NC(=O)Cn1nc(C(F)(F)F)cc1C` [Example 519, N-[2-Ethoxy-5-(7-isopropyl-7H-pyrrolo[2,3-d]pyrimidine-5-carbonyl)-pyridin-3-yl]-2-(5-methyl-3-trifluoromethyl-pyrazol-1-yl)-acetamide], the IC50 was found to be 47.9 nM.

Turning to `CC(C)(C)n1cc(C(=O)c2cncc(NC(=O)Cc3ccc(C#N)cc3)c2)c2cnc(N)nc21` [Example 520, N-[5-(2-Amino-7-tert-butyl-7H-pyrrolo[2,3-d]pyrimidine-5-carbonyl)-pyridin-3-yl]-2-(4-cyano-phenyl)-acetamide], the IC50 was 4.57 nM.

Take `CC(C)n1cc(C(=O)c2cncc(NC(=O)C(CO)c3ccc(Cl)cc3)c2)c2cncnc21` (stereo not drawn) [Example 521, 2-(4-Chloro-phenyl)-3-hydroxy-N-[5-(7-isopropyl-7H-pyrrolo[2,3-d]pyrimidine-5-carbonyl)-pyridin-3-yl]-propionamide]: the IC50 came to 92.7 nM.

With `N#Cc1ccc(CC(=O)Nc2cncc(C(=O)c3cn(C4(CO)CC4)c4ncncc34)c2)cc1` [Example 522, 2-(4-Cyano-phenyl)-N-{5-[7-(1-hydroxymethyl-cyclopropyl)-7H-pyrrolo[2,3-d]pyrimidine-5-carbonyl]-pyridin-3-yl}-acetamide], the IC50 amounted to 43.7 nM.

Take `O=C(Cc1ccc(Cl)cn1)Nc1cncc(C(=O)c2cn(C3(CO)CC3)c3ncncc23)c1` [Example 523, 2-(5-Chloro-pyridin-2-yl)-N-{5-[7-(1-hydroxymethyl-cyclopropyl)-7H-pyrrolo[2,3-d]pyrimidine-5-carbonyl]-pyridin-3-yl}-acetamide]: the IC50 was 11.4 nM.

As to `O=C(Cc1ccc(C(F)(F)F)cc1)Nc1cncc(C(=O)c2cn(C3(CO)CC3)c3ncncc23)c1` [Example 524, N-{5-[7-(1-Hydroxymethyl-cyclopropyl)-7H-pyrrolo[2,3-d]pyrimidine-5-carbonyl]-pyridin-3-yl}-2-(4-trifluoromethyl-phenyl)-acetamide], the IC50 was 4.53 nM.

Take `O=C(Cn1ccc(C(F)(F)F)n1)Nc1cncc(C(=O)c2cn(C3(CO)CC3)c3ncncc23)c1` [Example 525, N-{5-[7-(1-Hydroxymethyl-cyclopropyl)-7H-pyrrolo[2,3-d]pyrimidine-5-carbonyl]-pyridin-3-yl}-2-(3-trifluoromethyl-pyrazol-1-yl)-acetamide]: the IC50 came to 9.48 nM.

Take `CC(C)n1cc(C(=O)c2cncc(NC(=O)Nc3cc(C4CC4)nn3-c3cnn(C)c3)c2)c2cncnc21` [Example 526, 1-(3-Cyclopropyl-1′-methyl-1′H-[1,4′]bipyrazolyl-5-yl)-3-[5-(7-isopropyl-7H-pyrrolo[2,3-d]pyrimidine-5-carbonyl)-pyridin-3-yl]-urea]: the IC50 turned out to be 1.51 nM.

Regarding `CC(C)n1cc(C(=O)c2cncc(NC(=O)Nc3cc(C(C)(C)C)nn3-c3cnn(C)c3)c2)c2cncnc21` [Example 527, 1-(3-tert-Butyl-1′-methyl-1′H-[1,4′]bipyrazolyl-5-yl)-3-[5-(7-isopropyl-7H-pyrrolo[2,3-d]pyrimidine-5-carbonyl)-pyridin-3-yl]-urea], the IC50 came to 4.64 nM.

For the compound `CC(C)(C)n1cc(C(=O)c2cncc(NC(=O)Cc3nc4ccccc4[nH]3)c2)c2cnc(N)nc21` [Example 528, N-[5-(2-Amino-7-tert-butyl-7H-pyrrolo[2,3-d]pyrimidine-5-carbonyl)-pyridin-3-yl]-2-(1H-benzoimidazol-2-yl)-acetamide], the IC50 was found to be 2.25 nM.

With `CC(C)(C)n1cc(C(=O)c2cncc(NC(=O)Cc3ccc(Br)cn3)c2)c2cnc(N)nc21` [Example 529, N-[5-(2-Amino-7-tert-butyl-7H-pyrrolo[2,3-d]pyrimidine-5-carbonyl)-pyridin-3-yl]-2-(5-bromo-pyridin-2-yl)-acetamide], the IC50 came out at 3.93 nM.

Take `CC(C)(C)n1cc(C(=O)c2cncc(NC(=O)Cc3ccc(C#N)cn3)c2)c2cnc(N)nc21` [Example 530, N-[5-(2-Amino-7-tert-butyl-7H-pyrrolo[2,3-d]pyrimidine-5-carbonyl)-pyridin-3-yl]-2-(5-cyano-pyridin-2-yl)-acetamide]: the IC50 turned out to be 5.9 nM.

Regarding `C[C@@H](CO)n1cc(C(=O)c2cncc(NC(=O)Cc3ccc(OC(F)F)cc3)c2)c2cncnc21` [Example 531, 2-(4-Difluoromethoxy-phenyl)-N-{5-[7-((S)-2-hydroxy-1-methyl-ethyl)-7H-pyrrolo[2,3-d]pyrimidine-5-carbonyl]-pyridin-3-yl}-acetamide], the IC50 stood at 52.4 nM.

For `C[C@@H](CO)n1cc(C(=O)c2cncc(NC(=O)Cn3cc4ccccc4n3)c2)c2cncnc21` [Example 532, N-{5-[7-((S)-2-Hydroxy-1-methyl-ethyl)-7H-pyrrolo[2,3-d]pyrimidine-5-carbonyl]-pyridin-3-yl}-2-indazol-2-yl-acetamide], the IC50 was determined as 11.1 nM.

As for `C[C@@H](CO)n1cc(C(=O)c2cncc(NC(=O)Cc3nc4ccccc4[nH]3)c2)c2cncnc21` [Example 533, 2-(1H-Benzoimidazol-2-yl)-N-{5-[7-((S)-2-hydroxy-1-methyl-ethyl)-7H-pyrrolo[2,3-d]pyrimidine-5-carbonyl]-pyridin-3-yl}-acetamide], the IC50 turned out to be 31.3 nM.

For the compound `C[C@@H](CO)n1cc(C(=O)c2cncc(NC(=O)Cc3ccc(OC(F)(F)F)cc3)c2)c2cncnc21` [Example 534, N-{5-[7-((S)-2-Hydroxy-1-methyl-ethyl)-7H-pyrrolo[2,3-d]pyrimidine-5-carbonyl]-pyridin-3-yl}-2-(4-trifluoromethoxy-phenyl)-acetamide], the IC50 turned out to be 20.3 nM.

With `C[C@@H](CO)n1cc(C(=O)c2cncc(NC(=O)Cc3ccc(F)c(F)c3)c2)c2cncnc21` [Example 535, 2-(3,4-Difluoro-phenyl)-N-{5-[7-((S)-2-hydroxy-1-methyl-ethyl)-7H-pyrrolo[2,3-d]pyrimidine-5-carbonyl]-pyridin-3-yl}-acetamide], the IC50 amounted to 51.2 nM.

For the compound `COCC(C)(C)n1cc(C(=O)c2cncc(NC(=O)Cc3ccc(Cl)cn3)c2)c2cncnc21` [Example 536, 2-(5-Chloro-pyridin-2-yl)-N-{5-[7-(2-methoxy-1,1-dimethyl-ethyl)-7H-pyrrolo[2,3-d]pyrimidine-5-carbonyl]-pyridin-3-yl}-acetamide], the IC50 came to 1.57 nM.
